Data as given in paper PMC7719383 (Clinical and Translational Science, 2020).
Like-named read-outs stand apart in the source and are kept apart here.

Columns and labels:
[1] = tested on: patients with advanced pancreatic cancer; assay type: in vivo, human
Plasma pharmacokinetics = assay type: in vivo, human; details: for Tmax: median; for effect of co‐administration on exposure: dinaciclib with MK‐2206
[2] = cited from earlier work
pSer473 Akt = details: lowest dose level tested (60 mg once weekly); cited from earlier work
[3] = A: Dinaciclib/combination N = 11

NC1(c2ccc(-c3nc4ccn5c(=O)[nH]nc5c4cc3-c3ccccc3)cc2)CCC1 [MK‐2206]
Dose reduction MK‐2206 [1, 3]: 0 (0%) n (%) | Dose reduction MK‐2206 ([1]; B: MK‐2206/combination N = 7): 1 (14%) n (%) | Dose reduction MK‐2206 ([1]; Dose escalation N = 21): 1 (5%) n (%) | maximum tolerated dose ([1]; MK‐2206 p.o. weekly in combination with dinaciclib): 135 mg | C ss,min (Plasma pharmacokinetics; MK‐2206 alone, Expansion, arm B, MK‐2206 135 mg, dinaciclib 9 mg/m^2, mean ± SD): 48.0 ± 22.7 (7) | Tmax (Plasma pharmacokinetics; MK‐2206 alone, Expansion, arm B, MK‐2206 135 mg, dinaciclib 9 mg/m^2): 4 (2.17–25.17; 7) hour | T 1/2 (Plasma pharmacokinetics; MK‐2206 in combination, Expansion, arm B, dose reduced, MK‐2206 90 mg, dinaciclib 9 mg/m^2, n = 1): 64.5 (1) h | effect of co‐administration on exposure (Plasma pharmacokinetics): did not alter | half-life (Plasma pharmacokinetics; human, plasma, oral, 90 mg, T 1/2, MK‐2206 alone, Escalation, level 3, MK‐2206 90 mg, dinaciclib 12 mg/m^2, mean ± SD): 68.3 ± 16.6 h | Tmax (Plasma pharmacokinetics; human, plasma, oral, 90 mg, Tmax, MK‐2206 alone, Escalation, level 3, MK‐2206 90 mg, dinaciclib 12 mg/m^2): 5.97 h | half-life (Plasma pharmacokinetics; human, plasma, oral, 135 mg, T 1/2, MK‐2206 alone, Escalation, level 2.5, MK‐2206 135 mg, dinaciclib 9 mg/m^2, mean ± SD): 56.9 ± 9.7 h | Tmax (Plasma pharmacokinetics; human, plasma, oral, 135 mg, Tmax, MK‐2206 alone, Escalation, level 2.5, MK‐2206 135 mg, dinaciclib 9 mg/m^2): 4.5 h | half-life (Plasma pharmacokinetics; human, plasma, oral, T 1/2, MK‐2206 in combination, Expansion, arm A, MK‐2206 135 mg, dinaciclib 9 mg/m^2, mean ± SD): 69.7 ± 23.1 h | Tmax (Plasma pharmacokinetics; human, plasma, oral, Tmax, MK‐2206 in combination, Expansion, arm A, MK‐2206 135 mg, dinaciclib 9 mg/m^2): 10.2 h | Tmax (Plasma pharmacokinetics; human, plasma, oral, Tmax, MK‐2206 in combination, Expansion, arm B, MK‐2206 135 mg, dinaciclib 9 mg/m^2): 5.13 h | recommended phase II dose ([2]; once weekly): 200 mg | pSer473 Akt expression in tumor biopsies (pSer473 Akt): significant reduction

CCc1cnn2c(NCc3ccc[n+]([O-])c3)cc(N3CCCC[C@H]3CCO)nc12 [dinaciclib]
Dose reduction Dinaciclib [1, 3]: 2 (18%) n (%) | Dose reduction Dinaciclib ([1]; B: MK‐2206/combination N = 7): 0 (0%) n (%) | Dose reduction Dinaciclib ([1]; Dose escalation N = 21): 3 (14%) n (%) | maximum tolerated dose ([1]; dinaciclib i.v. weekly in combination with MK‐2206): 9 mg/m^2 | association between exposure (Cmax) and race (Plasma pharmacokinetics; African Americans and Asians vs white patients, P = 0.04): lower exposure | effect of co‐administration on exposure (Plasma pharmacokinetics): did not alter | recommended phase II dose ([2]; single agent): 12 mg/m^2
